What was measured:
Type in all cases: in vivo
bulrush [1] = assay: Test Example 1: herbicidal effects in preemergence treatment under submerged conditions; details: dose 2.52 g/a
Method in brief: (§1)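 Weed seeds and 2.5-leaf rice seedlings shared each flooded cup of alluvial soil. Dosing, expressed as g per are, was by pouring water-diluted emulsifiable concentrate onto the surface on sowing day. Mortality was graded 0 to 5 after three weeks' growth.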

barnyardgrass [2] = assay: as above; details: dose 2.52 g/a
Method in brief: as §1

ducksalad [3] = assay: as above; details: dose 2.52 g/a
Method in brief: as §1

bulrush [4] = assay: Test Example 2: herbicidal effects during the vegetation period under submerged conditions; details: treatment during the vegetation period under submerged conditions; dose 2.52 g/a
Method in brief: (§2)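 Barnyardgrass, bulrush and ducksalad were co-sown in alluvial soil flooded to 4 cm and grown in a greenhouse at 25 to 30° C. At the 1- or 2-leaf stage, water-diluted emulsifiable concentrates went onto the water surface at set doses (g/a). Herbicidal effect was scored three weeks later on a graded scale.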

barnyardgrass [5] = assay: as above; details: treatment during the vegetation period under submerged conditions; dose 2.52 g/a
Method in brief: as §2

ducksalad [6] = assay: as above; details: treatment during the vegetation period under submerged conditions; dose 2.52 g/a
Method in brief: as §2

Italian ryegrass [7] = assay: Test Example 4: herbicidal effect in foliage treatment; details: dose 3.2 g/a
Method in brief: (§3)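 Foliar spray, post-emergence: 14-day-old greenhouse plants (25–30° C, diluvial soil) treated with water-diluted EC at set g/a doses; visual herbicidal score at 3 wk post-application.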

common lambsquater [8] = assay: as above; details: dose 3.2 g/a
Method in brief: as §3

beadstraw [9] = assay: as above; details: dose 3.2 g/a
Method in brief: as §3

giant foxtail [10] = assay: as above; details: dose 3.2 g/a
Method in brief: as §3

redroot pigweed [11] = assay: as above; details: dose 3.2 g/a
Method in brief: as §3

common chickweed [12] = assay: as above; details: dose 3.2 g/a
Method in brief: as §3

posumbu knotweed [13] = assay: as above; details: dose 3.2 g/a
Method in brief: as §3

velvetleaf [14] = assay: as above; details: dose 3.2 g/a
Method in brief: as §3

common ragweed [15] = assay: as above; details: dose 3.2 g/a
Method in brief: as §3

water foxtail [16] = assay: as above; details: dose 3.2 g/a
Method in brief: as §3

barnyardgrass [17] = assay: as above; details: dose 3.2 g/a
Method in brief: as §3

large crabgrass [18] = assay: as above; details: dose 3.2 g/a
Method in brief: as §3

transplanted rice = assay: Test Example 1: preemergence treatment under submerged conditions, effect on crop; details: dose 2.52 g/a
Method in brief: as §1

Italian ryegrass [19] = assay: Test Example 3: herbicidal effects in soil treatment; details: dose 3.2 g/a
Method in brief: (§4)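 Seeds were sown in sterilized diluvial soil and covered with about 1.5 cm of soil. Compounds, formulated as emulsifiable concentrates and diluted with water, were sprayed evenly over the soil surface at set doses in g/a. Herbicidal effect was scored on a rating scale three weeks later.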

common lambsquater [20] = assay: as above; details: dose 3.2 g/a
Method in brief: as §4

beadstraw [21] = assay: as above; details: dose 3.2 g/a
Method in brief: as §4

giant foxtail [22] = assay: as above; details: dose 3.2 g/a
Method in brief: as §4

redroot pigweed [23] = assay: as above; details: dose 3.2 g/a
Method in brief: as §4

common chickweed [24] = assay: as above; details: dose 3.2 g/a
Method in brief: as §4

posumbu knotweed [25] = assay: as above; details: dose 3.2 g/a
Method in brief: as §4

velvetleaf [26] = assay: as above; details: dose 3.2 g/a
Method in brief: as §4

common ragweed [27] = assay: as above; details: dose 3.2 g/a
Method in brief: as §4

water foxtail [28] = assay: as above; details: dose 3.2 g/a
Method in brief: as §4

barnyardgrass [29] = assay: as above; details: dose 3.2 g/a
Method in brief: as §4

large crabgrass [30] = assay: as above; details: dose 3.2 g/a
Method in brief: as §4

[31] = three weeks after the application

CCOC(=O)N(c1ccccc1CN1OCC(CC)OC1=O)S(=O)(=O)C(F)(F)F (centres unmarked) [III-6]
B: bulrush, herbicidal effect (evaluation scale 0-5) (bulrush [1]): 5 (mortality of 90% or above (nearly complete death))
A: barnyardgrass, herbicidal effect (evaluation scale 0-5) (barnyardgrass [2]): 5 (mortality of 90% or above (nearly complete death))
C: ducksalad, herbicidal effect (evaluation scale 0-5) (ducksalad [3]): 5 (mortality of 90% or above (nearly complete death))
B: bulrush, herbicidal effect (evaluation scale 0-5) (bulrush [4]): 5 (mortality of 90% or above (nearly complete death))
A: barnyardgrass, herbicidal effect (evaluation scale 0-5) (barnyardgrass [5]): 5 (mortality of 90% or above (nearly complete death))
C: ducksalad, herbicidal effect (evaluation scale 0-5) (ducksalad [6]): 5 (mortality of 90% or above (nearly complete death))
H: Italian ryegrass, herbicidal effect (Italian ryegrass [7]; [31]): 2 (mortality of at least 20% and less than 40%)
L: common lambsquater, herbicidal effect (common lambsquater [8]; [31]): 3 (mortality of at least 40% and less than 70%)
O: beadstraw, herbicidal effect (beadstraw [9]; [31]): 3 (mortality of at least 40% and less than 70%)
E: giant foxtail, herbicidal effect (giant foxtail [10]; [31]): 5 (mortality of 90% or above (nearly complete death))
K: redroot pigweed, herbicidal effect (redroot pigweed [11]; [31]): 4 (mortality of at least 70% and less than 90%)
N: common chickweed, herbicidal effect (common chickweed [12]; [31]): 4 (mortality of at least 70% and less than 90%)
M: posumbu knotweed, herbicidal effect (posumbu knotweed [13]; [31]): 5 (mortality of 90% or above (nearly complete death))
I: velvetleaf, herbicidal effect (velvetleaf [14]; [31]): 3 (mortality of at least 40% and less than 70%)
J: common ragweed, herbicidal effect (common ragweed [15]; [31]): 4 (mortality of at least 70% and less than 90%)
G: water foxtail, herbicidal effect (water foxtail [16]; [31]): 5 (mortality of 90% or above (nearly complete death))
A: barnyardgrass, herbicidal effect (barnyardgrass [17]; [31]): 5 (mortality of 90% or above (nearly complete death))
D: large crabgrass, herbicidal effect (large crabgrass [18]; [31]): 3 (mortality of at least 40% and less than 70%)
a: transplanted rice, effect on crop (evaluation scale 0-5) (transplanted rice): 0 (mortality of less than 5% (almost ineffective))
herbicidal effect, H: Italian ryegrass (Italian ryegrass [19]): 5 (mortality of 90% or above (nearly complete death))
herbicidal effect, L: common lambsquater (common lambsquater [20]): 4 (mortality of at least 70% and less than 90%)
herbicidal effect, O: beadstraw (beadstraw [21]): 4 (mortality of at least 70% and less than 90%)
herbicidal effect, E: giant foxtail (giant foxtail [22]): 4 (mortality of at least 70% and less than 90%)
herbicidal effect, K: redroot pigweed (redroot pigweed [23]): 3 (mortality of at least 40% and less than 70%)
herbicidal effect, N: common chickweed (common chickweed [24]): 5 (mortality of 90% or above (nearly complete death))
herbicidal effect, M: posumbu knotweed (posumbu knotweed [25]): 5 (mortality of 90% or above (nearly complete death))
herbicidal effect, I: velvetleaf (velvetleaf [26]): 5 (mortality of 90% or above (nearly complete death))
herbicidal effect, J: common ragweed (common ragweed [27]): 4 (mortality of at least 70% and less than 90%)
herbicidal effect, G: water foxtail (water foxtail [28]): 5 (mortality of 90% or above (nearly complete death))
herbicidal effect, A: barnyardgrass (barnyardgrass [29]): 5 (mortality of 90% or above (nearly complete death))
herbicidal effect, D: large crabgrass (large crabgrass [30]): 5 (mortality of 90% or above (nearly complete death))

Cn1nc(Cl)cc1C1(C)CC(=O)N(Cc2ccccc2NS(=O)(=O)C(F)(F)F)CO1 (centres unmarked) [II-59]
B: bulrush, herbicidal effect (evaluation scale 0-5) (bulrush [1]): 5 (mortality of 90% or above (nearly complete death))
A: barnyardgrass, herbicidal effect (evaluation scale 0-5) (barnyardgrass [2]): 5 (mortality of 90% or above (nearly complete death))
C: ducksalad, herbicidal effect (evaluation scale 0-5) (ducksalad [3]): 5 (mortality of 90% or above (nearly complete death))
B: bulrush, herbicidal effect (evaluation scale 0-5) (bulrush [4]): 5 (mortality of 90% or above (nearly complete death))
A: barnyardgrass, herbicidal effect (evaluation scale 0-5) (barnyardgrass [5]): 5 (mortality of 90% or above (nearly complete death))
C: ducksalad, herbicidal effect (evaluation scale 0-5) (ducksalad [6]): 5 (mortality of 90% or above (nearly complete death))
H: Italian ryegrass, herbicidal effect (Italian ryegrass [7]; three weeks after application): 1 (mortality of at least 5% and less than 20%)
L: common lambsquater, herbicidal effect (common lambsquater [8]; three weeks after application): 1 (mortality of at least 5% and less than 20%)
O: beadstraw, herbicidal effect (beadstraw [9]; three weeks after application): 5 (mortality of 90% or above (nearly complete death))
E: giant foxtail, herbicidal effect (giant foxtail [10]; three weeks after application): 1 (mortality of at least 5% and less than 20%)
K: redroot pigweed, herbicidal effect (redroot pigweed [11]; three weeks after application): 0 (mortality of less than 5% (almost ineffective))
N: common chickweed, herbicidal effect (common chickweed [12]; three weeks after application): 4 (mortality of at least 70% and less than 90%)
M: posumbu knotweed, herbicidal effect (posumbu knotweed [13]; three weeks after application): 1 (mortality of at least 5% and less than 20%)
I: velvetleaf, herbicidal effect (velvetleaf [14]; three weeks after application): 2 (mortality of at least 20% and less than 40%)
J: common ragweed, herbicidal effect (common ragweed [15]; three weeks after application): 4 (mortality of at least 70% and less than 90%)
G: water foxtail, herbicidal effect (water foxtail [16]; three weeks after application): 5 (mortality of 90% or above (nearly complete death))
A: barnyardgrass, herbicidal effect (barnyardgrass [17]; three weeks after application): 5 (mortality of 90% or above (nearly complete death))
D: large crabgrass, herbicidal effect (large crabgrass [18]; three weeks after application): 3 (mortality of at least 40% and less than 70%)
a: transplanted rice, effect on crop (evaluation scale 0-5) (transplanted rice): 0 (mortality of less than 5% (almost ineffective))
H: Italian ryegrass, herbicidal effect (evaluation scale 0-5) (Italian ryegrass [19]): 5 (mortality of 90% or above (nearly complete death))
L: common lambsquater, herbicidal effect (evaluation scale 0-5) (common lambsquater [20]): 0 (mortality of less than 5% (almost ineffective))
O: beadstraw, herbicidal effect (evaluation scale 0-5) (beadstraw [21]): 1 (mortality of at least 5% and less than 20%)
E: giant foxtail, herbicidal effect (evaluation scale 0-5) (giant foxtail [22]): 4 (mortality of at least 70% and less than 90%)
K: redroot pigweed, herbicidal effect (evaluation scale 0-5) (redroot pigweed [23]): 3 (mortality of at least 40% and less than 70%)
N: common chickweed, herbicidal effect (evaluation scale 0-5) (common chickweed [24]): 4 (mortality of at least 70% and less than 90%)
M: posumbu knotweed, herbicidal effect (evaluation scale 0-5) (posumbu knotweed [25]): 1 (mortality of at least 5% and less than 20%)
I: velvetleaf, herbicidal effect (evaluation scale 0-5) (velvetleaf [26]): 1 (mortality of at least 5% and less than 20%)
J: common ragweed, herbicidal effect (evaluation scale 0-5) (common ragweed [27]): 3 (mortality of at least 40% and less than 70%)
G: water foxtail, herbicidal effect (evaluation scale 0-5) (water foxtail [28]): 0 (mortality of less than 5% (almost ineffective))
A: barnyardgrass, herbicidal effect (evaluation scale 0-5) (barnyardgrass [29]): 4 (mortality of at least 70% and less than 90%)
D: large crabgrass, herbicidal effect (evaluation scale 0-5) (large crabgrass [30]): 1 (mortality of at least 5% and less than 20%)
